Values belong to the molecule of their own block, whether it stands above or below them.
Tested on: 598228-144-R-J1-PDC complex spheroids, viability
Experiment: Anticancer human tumor 598228-144-R-J1-PDC patient-derived serous endometrial adenocarcinoma cell line growth inhibition [CLK]
Details: for IC50: curve of first compound; for viability, T/C: stronger effect = lower value
How it was run: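 Patient-derived tumor cells grown as complex spheroids with HUVEC endothelial cells and mesenchymal stem cells, treated with drug combinations. Concentrations descend in half-log steps from near clinical Cmax, or from 10 microM if Cmax unknown.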

[1] = second compound 0.0316 µM, first compound 0.0316 µM
[2] = second compound 0.0316 µM, first compound 0.1 µM
[3] = second compound 0.0316 µM, first compound 0.316 µM
[4] = second compound 0.0316 µM, first compound 1 µM
[5] = second compound 0.0316 µM, first compound 3.16 µM
[6] = second compound 0.0316 µM, first compound 10 µM
[7] = second compound 0.1 µM, first compound 0.0316 µM
[8] = second compound 0.1 µM, first compound 0.1 µM
[9] = second compound 0.1 µM, first compound 0.316 µM
[10] = second compound 0.1 µM, first compound 1 µM
[11] = second compound 0.1 µM, first compound 3.16 µM
[12] = second compound 0.1 µM, first compound 10 µM
[13] = second compound 0.316 µM, first compound 0.0316 µM
[14] = second compound 0.316 µM, first compound 0.1 µM
[15] = second compound 0.316 µM, first compound 0.316 µM
[16] = second compound 0.316 µM, first compound 1 µM
[17] = second compound 0.316 µM, first compound 3.16 µM
[18] = second compound 0.316 µM, first compound 10 µM
[19] = second compound 1 µM, first compound 0.0316 µM
[20] = second compound 1 µM, first compound 0.1 µM
[21] = second compound 1 µM, first compound 0.316 µM
[22] = second compound 1 µM, first compound 1 µM
[23] = second compound 1 µM, first compound 3.16 µM
[24] = second compound 1 µM, first compound 10 µM
[25] = second compound 3.16 µM, first compound 0.0316 µM
[26] = second compound 3.16 µM, first compound 0.1 µM
[27] = second compound 3.16 µM, first compound 0.316 µM
[28] = second compound 3.16 µM, first compound 1 µM
[29] = second compound 3.16 µM, first compound 3.16 µM
[30] = second compound 3.16 µM, first compound 10 µM
[31] = second compound 10 µM, first compound 0.0316 µM
[32] = second compound 10 µM, first compound 0.1 µM
[33] = second compound 10 µM, first compound 0.316 µM
[34] = second compound 10 µM, first compound 1 µM
[35] = second compound 10 µM, first compound 3.16 µM
[36] = second compound 10 µM, first compound 10 µM
[37] = second compound 0.0316 µM, first compound 0.00316 µM
[38] = second compound 0.0316 µM, first compound 0.01 µM
[39] = second compound 0.1 µM, first compound 0.00316 µM
[40] = second compound 0.1 µM, first compound 0.01 µM
[41] = second compound 0.316 µM, first compound 0.00316 µM
[42] = second compound 0.316 µM, first compound 0.01 µM
[43] = second compound 1 µM, first compound 0.00316 µM
[44] = second compound 1 µM, first compound 0.01 µM
[45] = second compound 3.16 µM, first compound 0.00316 µM
[46] = second compound 3.16 µM, first compound 0.01 µM
[47] = second compound 10 µM, first compound 0.00316 µM
[48] = second compound 10 µM, first compound 0.01 µM
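Also: spheroids exposed to compounds for seven days before readout.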
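For viability, T/C in this document: 100% = DMSO vehicle control wells.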

- IC50 (second compound 0.0316 µM): > 10000 nM
- IC50 (second compound 0.1 µM): > 10000 nM
- IC50 (second compound 0.316 µM): > 10000 nM
- IC50 (second compound 1 µM): > 10000 nM
- IC50 (second compound 3.16 µM): > 10000 nM
- IC50 (second compound 10 µM): > 10000 nM
Compound: C#Cc1c(F)ccc2cc(O)cc(-c3ncc4c(N5CC6CCC(C5)N6)nc(OCC56CCCN5CC(F)C6)nc4c3F)c12 (stereo not given) + CNC(=O)c1ccc(Nc2nc(OC3CCCC3)c3c(-c4ccc5nc(C)oc5c4)c[nH]c3n2)c(OC)c1
- viability, T/C [1]: 111%
- viability, T/C [2]: 112%
- viability, T/C [3]: 117%
- viability, T/C [4]: 125%
- viability, T/C [5]: 99.5%
- viability, T/C [6]: 94.1%
- viability, T/C [7]: 99.7%
- viability, T/C [8]: 104%
- viability, T/C [9]: 109%
- viability, T/C [10]: 102%
- viability, T/C [11]: 98.1%
- viability, T/C [12]: 88.3%
- viability, T/C [13]: 120%
- viability, T/C [14]: 102%
- viability, T/C [15]: 132%
- viability, T/C [16]: 100%
- viability, T/C [17]: 110%
- viability, T/C [18]: 90.7%
- viability, T/C [19]: 101%
- viability, T/C [20]: 90.3%
- viability, T/C [21]: 98.3%
- viability, T/C [22]: 98.2%
- viability, T/C [23]: 104%
- viability, T/C [24]: 83.3%
- viability, T/C [25]: 98.5%
- viability, T/C [26]: 92.5%
- viability, T/C [27]: 81.8%
- viability, T/C [28]: 83.6%
- viability, T/C [29]: 95.2%
- viability, T/C [30]: 88.5%
- viability, T/C [31]: 83.3%
- viability, T/C [32]: 80.7%
- viability, T/C [33]: 90.8%
- viability, T/C [34]: 81.9%
- viability, T/C [35]: 102%
- viability, T/C [36]: 78.8%

- IC50 (second compound 0.0316 µM): > 10000 nM
- IC50 (second compound 0.1 µM): > 10000 nM
- IC50 (second compound 0.316 µM): > 10000 nM
- IC50 (second compound 1 µM): > 10000 nM
- IC50 (second compound 3.16 µM): > 10000 nM
- IC50 (second compound 10 µM): > 10000 nM
Compound: CC(CO)NC(=O)c1cc(-c2ccc(Cl)cc2)nn(-c2cnn(C)c2)c1=O (stereo not given) + CNC(=O)c1ccc(Nc2nc(OC3CCCC3)c3c(-c4ccc5nc(C)oc5c4)c[nH]c3n2)c(OC)c1
- viability, T/C [1]: 124%
- viability, T/C [2]: 102%
- viability, T/C [3]: 102%
- viability, T/C [4]: 104%
- viability, T/C [5]: 92.8%
- viability, T/C [6]: 94.4%
- viability, T/C [7]: 94.9%
- viability, T/C [8]: 107%
- viability, T/C [9]: 96.5%
- viability, T/C [10]: 103%
- viability, T/C [11]: 106%
- viability, T/C [12]: 83.8%
- viability, T/C [13]: 111%
- viability, T/C [14]: 104%
- viability, T/C [15]: 92.8%
- viability, T/C [16]: 96.5%
- viability, T/C [17]: 106%
- viability, T/C [18]: 96.8%
- viability, T/C [19]: 111%
- viability, T/C [20]: 104%
- viability, T/C [21]: 112%
- viability, T/C [22]: 105%
- viability, T/C [23]: 111%
- viability, T/C [24]: 87.6%
- viability, T/C [25]: 85.7%
- viability, T/C [26]: 94.7%
- viability, T/C [27]: 92.2%
- viability, T/C [28]: 102%
- viability, T/C [29]: 94.8%
- viability, T/C [30]: 81.4%
- viability, T/C [31]: 90.4%
- viability, T/C [32]: 77%
- viability, T/C [33]: 95.8%
- viability, T/C [34]: 77.5%
- viability, T/C [35]: 112%
- viability, T/C [36]: 83.1%

- IC50 (second compound 0.0316 µM): 309 nM
- IC50 (second compound 0.1 µM): 310 nM
- IC50 (second compound 0.316 µM): 248 nM
- IC50 (second compound 1 µM): 159 nM
- IC50 (second compound 3.16 µM): 145 nM
- IC50 (second compound 10 µM): 100 nM
Compound: CC(Nc1ccc2c(c1)OCCn1cc(N3C(=O)OCC3C(F)F)nc1-2)C(N)=O (stereo not given) + CNC(=O)c1ccc(Nc2nc(OC3CCCC3)c3c(-c4ccc5nc(C)oc5c4)c[nH]c3n2)c(OC)c1
- viability, T/C [1]: 91.9%
- viability, T/C [2]: 62.8%
- viability, T/C [3]: 53.1%
- viability, T/C [4]: 38.2%
- viability, T/C [5]: 31.5%
- viability, T/C [6]: 25.8%
- viability, T/C [7]: 88.2%
- viability, T/C [8]: 70.3%
- viability, T/C [9]: 47%
- viability, T/C [10]: 35.5%
- viability, T/C [11]: 35.5%
- viability, T/C [12]: 22.1%
- viability, T/C [13]: 77.5%
- viability, T/C [14]: 58.5%
- viability, T/C [15]: 51.6%
- viability, T/C [16]: 32.2%
- viability, T/C [17]: 26.2%
- viability, T/C [18]: 22.9%
- viability, T/C [19]: 75.2%
- viability, T/C [20]: 56.4%
- viability, T/C [21]: 37.4%
- viability, T/C [22]: 32.4%
- viability, T/C [23]: 23.1%
- viability, T/C [24]: 12.8%
- viability, T/C [25]: 69.7%
- viability, T/C [26]: 58.4%
- viability, T/C [27]: 33.8%
- viability, T/C [28]: 26.4%
- viability, T/C [29]: 21.2%
- viability, T/C [30]: 13.7%
- viability, T/C [31]: 70.3%
- viability, T/C [32]: 50.6%
- viability, T/C [33]: 33.1%
- viability, T/C [34]: 22.9%
- viability, T/C [35]: 18.8%
- viability, T/C [36]: 12.6%

- IC50 (second compound 0.0316 µM): > 1000 nM
- IC50 (second compound 0.1 µM): > 1000 nM
- IC50 (second compound 0.316 µM): > 1000 nM
- IC50 (second compound 1 µM): > 1000 nM
- IC50 (second compound 3.16 µM): > 1000 nM
- IC50 (second compound 10 µM): > 1000 nM
Compound: CCN1CCN(Cc2ccc(Nc3ncc(F)c(-c4cc(F)c5nc(C)n(C(C)C)c5c4)n3)nc2)CC1 + CNC(=O)c1ccc(Nc2nc(OC3CCCC3)c3c(-c4ccc5nc(C)oc5c4)c[nH]c3n2)c(OC)c1
- viability, T/C [37]: 104%
- viability, T/C [38]: 114%
- viability, T/C [1]: 105%
- viability, T/C [2]: 116%
- viability, T/C [3]: 112%
- viability, T/C [4]: 88.8%
- viability, T/C [39]: 110%
- viability, T/C [40]: 110%
- viability, T/C [7]: 126%
- viability, T/C [8]: 109%
- viability, T/C [9]: 120%
- viability, T/C [10]: 97.5%
- viability, T/C [41]: 119%
- viability, T/C [42]: 107%
- viability, T/C [13]: 118%
- viability, T/C [14]: 99%
- viability, T/C [15]: 108%
- viability, T/C [16]: 87.5%
- viability, T/C [43]: 105%
- viability, T/C [44]: 89.8%
- viability, T/C [19]: 91.8%
- viability, T/C [20]: 119%
- viability, T/C [21]: 106%
- viability, T/C [22]: 78.6%
- viability, T/C [45]: 95.2%
- viability, T/C [46]: 92.5%
- viability, T/C [25]: 82.3%
- viability, T/C [26]: 92.5%
- viability, T/C [27]: 95.8%
- viability, T/C [28]: 93%
- viability, T/C [47]: 95.5%
- viability, T/C [48]: 89.4%
- viability, T/C [31]: 90.2%
- viability, T/C [32]: 96.8%
- viability, T/C [33]: 108%
- viability, T/C [34]: 80.5%

- IC50 (second compound 0.0316 µM): 26.1 nM
- IC50 (second compound 0.1 µM): 30.2 nM
- IC50 (second compound 0.316 µM): 18.4 nM
- IC50 (second compound 1 µM): 15.2 nM
- IC50 (second compound 3.16 µM): 10.6 nM
- IC50 (second compound 10 µM): 9.94 nM
Compound: COc1c(OCCCN2CCOCC2)ccc2c3n(c(=NC(=O)c4cnc(N)nc4)nc12)CCN3 + CNC(=O)c1ccc(Nc2nc(OC3CCCC3)c3c(-c4ccc5nc(C)oc5c4)c[nH]c3n2)c(OC)c1
- viability, T/C [37]: 85.7%
- viability, T/C [38]: 65.5%
- viability, T/C [1]: 49%
- viability, T/C [2]: 26.5%
- viability, T/C [3]: 15.7%
- viability, T/C [4]: 9.14%
- viability, T/C [39]: 104%
- viability, T/C [40]: 74.2%
- viability, T/C [7]: 51.4%
- viability, T/C [8]: 25.8%
- viability, T/C [9]: 13.6%
- viability, T/C [10]: 5.09%
- viability, T/C [41]: 97.8%
- viability, T/C [42]: 65.4%
- viability, T/C [13]: 35.7%
- viability, T/C [14]: 19.6%
- viability, T/C [15]: 11.3%
- viability, T/C [16]: 5.13%
- viability, T/C [43]: 86.8%
- viability, T/C [44]: 61.4%
- viability, T/C [19]: 29.9%
- viability, T/C [20]: 16.6%
- viability, T/C [21]: 8.67%
- viability, T/C [22]: 5.42%
- viability, T/C [45]: 73.5%
- viability, T/C [46]: 51.5%
- viability, T/C [25]: 28.4%
- viability, T/C [26]: 13.9%
- viability, T/C [27]: 7.8%
- viability, T/C [28]: 3.58%
- viability, T/C [47]: 71.2%
- viability, T/C [48]: 50.3%
- viability, T/C [31]: 24.8%
- viability, T/C [32]: 12.9%
- viability, T/C [33]: 6.23%
- viability, T/C [34]: 5.18%

From PubChem BioAssay AID2060614 (Molecular Pharmacology Branch, DTP, NCI, 2025)
